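Test compounds were applied to cells in 96-well plates for 48 hours at 5 doses. At the GI50, growth is halved. TGI: concentration producing complete growth inhibition.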
Columns and labels:
Assay in all cases: NCI tumour cell line growth inhibition, 48 h
[1] = tested on: 786-0 renal
[2] = tested on: A549 NSCLC
[3] = tested on: IGROV1 ovarian
[4] = tested on: MCF7 breast
[5] = tested on: MDA-MB-231 breast
[6] = tested on: OVCAR-3 ovarian
[7] = tested on: SK-OV-3 ovarian
[8] = tested on: SNB-19 CNS
[9] = tested on: SNB-75 CNS
[10] = tested on: BT-549 breast

Structure (SMILES)	GI50 [1]	TGI [1]	GI50 [2]	TGI [2]	GI50 [3]	TGI [3]	GI50 [4]	TGI [4]	GI50 [5]	TGI [5]	GI50 [6]	TGI [6]	GI50 [7]	TGI [7]	GI50 [8]	TGI [8]	GI50 [9]	TGI [9]	GI50 [10]	TGI [10]
O=C(Nc1ccc(Cl)cc1)c1cc2ccccc2cc1O	3.81 µM	> 100 µM	4.54 µM	> 100 µM	2.19 µM	> 100 µM	1.9 µM	> 100 µM	5.83 µM	> 100 µM	2.01 µM	6.67 µM	1.91 µM	9.61 µM	4.19 µM	> 100 µM	22.2 µM	> 100 µM	–	–
C=C1CC[C@@H]2C(C)(C)CCC[C@@]2(C)[C@@H]1Cc1cc(O)ccc1O	–	12 µM	–	23 µM	–	5.65 µM	–	–	–	–	–	18.5 µM	–	6.04 µM	–	21.9 µM	–	7.14 µM	–	–
CCSc1nc(N=Cc2cccs2)c2cn[nH]c2n1	33.4 µM	> 100 µM	29.2 µM	> 100 µM	23.6 µM	> 100 µM	3.5 µM	19.2 µM	4.51 µM	> 100 µM	10.4 µM	53.9 µM	56 µM	> 100 µM	45.2 µM	> 100 µM	–	–	> 100 µM	> 100 µM
O=C(O)C12C3CCCC1C2CC3 (stereo unspecified)	–	> 100 µM	–	> 100 µM	–	> 100 µM	–	–	–	–	–	> 100 µM	–	> 100 µM	–	> 100 µM	–	> 100 µM	–	–
N.N.NC(CS)C(=O)[O-].NC(CS)C(=O)[O-].[Pt+4] (stereo unspecified)	> 50 µM	> 50 µM	> 50 µM	> 50 µM	> 50 µM	> 50 µM	–	–	–	–	> 50 µM	> 50 µM	> 50 µM	> 50 µM	> 50 µM	> 50 µM	> 50 µM	> 50 µM	–	–
Cc1c2cc[nH]c(=O)c2cc2c(=O)c3cnccc3[nH]c12	–	> 100 µM	–	> 100 µM	–	> 100 µM	–	–	–	–	–	> 100 µM	–	> 100 µM	–	> 100 µM	–	> 100 µM	–	–
COc1nc(C)cc2c(=O)n(-c3ccccc3)n(CCCN3CCN(c4ccc(Cl)cc4)CC3)c(=O)c12	31.2 µM	> 50 µM	21.2 µM	> 50 µM	> 50 µM	> 50 µM	37.7 µM	> 50 µM	39.5 µM	> 50 µM	24.6 µM	> 50 µM	32.8 µM	> 50 µM	18.8 µM	> 50 µM	14.1 µM	47.6 µM	–	–
CC(=O)OCC1OC(n2c(=O)n(-c3ccccc3)c(=O)c3ccccc32)C(OC(C)=O)C(OC(C)=O)C1OC(C)=O (stereo unspecified)	–	> 100 µM	–	> 100 µM	–	> 100 µM	–	–	–	–	–	> 100 µM	–	> 100 µM	–	> 100 µM	–	> 100 µM	–	–
CN(c1ccccc1)C(c1ccccc1)C(O)c1ccccc1 (stereo unspecified)	–	33.8 µM	–	35.4 µM	–	45.4 µM	–	–	–	–	–	32 µM	–	52.1 µM	–	36.4 µM	–	64.4 µM	–	–
COc1cc2c(/C=C3/C(=O)Nc4ccccc43)c(Cl)n(Cc3ccccc3[N+](=O)[O-])c2cc1C	6.31 µM	22.5 µM	7.8 µM	> 100 µM	7.46 µM	> 100 µM	5.46 µM	> 100 µM	3.85 µM	31.3 µM	3.02 µM	15 µM	14.8 µM	32.5 µM	11.1 µM	30.8 µM	–	–	9.16 µM	27.8 µM
Cc1nc2cccc(NCc3ccc(C(=O)NO)cc3)c2c(=O)n1-c1ccccc1	1.81 µM	3.78 µM	2.22 µM	5.17 µM	–	–	2.89 µM	38.9 µM	2.5 µM	6.79 µM	2.16 µM	4.9 µM	2.71 µM	8.28 µM	1.92 µM	4.56 µM	1.97 µM	5.46 µM	2.8 µM	8.1 µM
COC(=O)C1=C(O)C(O)=C(C(=O)OC)C1	–	> 100 µM	–	> 100 µM	–	> 100 µM	–	–	–	–	–	> 100 µM	–	> 100 µM	–	> 100 µM	–	> 100 µM	–	–
CCOP(=O)(OCC)/C(C#N)=C/c1ccco1	–	> 100 µM	–	> 100 µM	–	> 100 µM	–	–	–	–	–	–	–	> 100 µM	–	–	–	> 100 µM	–	–
ON=C1CCC(c2ccccc2)CC1 (stereo unspecified)	–	> 100 µM	–	> 100 µM	–	> 100 µM	–	–	–	–	–	> 100 µM	–	> 100 µM	–	> 100 µM	–	> 100 µM	–	–
COC(=O)c1ccc(N=NN(C)CO)cc1	–	> 100 µM	–	> 100 µM	–	> 100 µM	–	–	–	–	–	> 100 µM	–	> 100 µM	–	> 100 µM	–	> 100 µM	–	–
CCOC(=O)CC1=CSC2=NCCN12	–	> 100 µM	–	> 100 µM	–	> 100 µM	–	–	–	–	–	> 100 µM	–	> 100 µM	–	> 100 µM	–	> 100 µM	–	–
COc1ccc(/C=C2/C[N+](C)(C)C/C(=C/c3ccc(OC)cc3)C2=O)cc1	–	> 100 µM	–	> 100 µM	–	64.7 µM	–	–	–	–	–	98.5 µM	–	> 100 µM	–	> 100 µM	–	> 100 µM	–	–
CCOC(=O)C(=O)Nc1c(N(CC)CC)n2ccccc2nc1=O	–	> 100 µM	–	> 100 µM	–	> 100 µM	–	–	–	–	–	> 100 µM	–	> 100 µM	–	> 100 µM	–	> 100 µM	–	–
CC1=Cc2cc3[n-]c(cc4nc(cc5[n-]c(cc1n2)cc5C)C(C)=C4CCC(=O)O)c(CCC(=O)O)c3C.[Pd+2]	> 21.8 µM	> 49.6 µM	32.1 µM	54.7 µM	14.2 µM	25.6 µM	> 100 µM	> 100 µM	–	–	7.51 µM	27.1 µM	11.5 µM	30.1 µM	9.52 µM	34.1 µM	6.8 µM	29.9 µM	4.89 µM	> 100 µM
CC(C)(C)[C@H]1CO[C@]2(C)[C@@H]3C[C@@H]3C(=O)N12	–	> 100 µM	–	> 100 µM	–	> 100 µM	–	–	–	–	–	> 100 µM	–	> 100 µM	–	> 100 µM	–	> 100 µM	–	–

Reference: PubChem BioAssay (NCI)
